In US20230134747A1, “COMPOSITIONS FOR THE TREATMENT OF AUTISM SPECTRUM DISORDER” (STALICLA SA, priority 2020, published 2023):

Legend:
[1] = system: ASD patients; details: clinical setting; heterogeneous responses reported; cited from earlier work
[2] = system: human cell lines (A549, ASC, HA1E, HT29, MCF7, PC3, VCAP); test: Differential gene expression (QuantSeq RNA sequencing) after bumetanide treatment of cell lines; type: cell-based; details: 10 uM, 6 or 24 hours, across cell lines
Description: To characterize the cell line invariant mechanism of action, bumetanide was tested across different human cell lines including several cancer cell lines (such as A549, MCF7, PC3, HT29 and VAP) as well as cells from healthy tissues (such as ASC and HA1E). These cell lines (Table 3) were chosen due to their ease of manipulation and suitability for systematic screening. […] Incubation of cell types was performed inside an incubator with a humified atmosphere of 95% and 5% of CO2, and a constant temperature of 37° C. Cells were treated with bumetanide using a dilution of 10 uM for all replicates at a time duration of 6 or 24 hours. [table] Following drug treatment, RNA extracted from each treated cell line was sequenced with QuantSeq with 4-6 million coverage reads per sample in triplicates.

[3] = system: patients with idiopathic ASD; test: Observational clinical pilot study: earlier oral bumetanide treatment of ASD patients; type: in vivo, human; details: three patients with idiopathic ASD; oral solution 0.5, 1.0 or 2 mg twice daily for three months
Description: The main goal of this pilot study was to validate the clinical benefit of bumetanide in patients showing clinical signs and symptoms characterizing ASD phenotype 3. First, a custom semi-structured online clinical questionnaire (Questionnaire […] 2021) comprising a total of 38 medical examination questions and 73 medical history questions was administered by a clinician during a remote screening visit (over the phone) that took up to 90 min. This remote screening visit included reviewing detailed medical history and clinical signs and symptoms related to ASD phenotype 3 with the patient/caregiver for a clinical validation. […]

| SMILES | Effect on behaviour in ASD patients [1] | DEG ranking after treatment, GNAS ([2]; gene GNAS) | Direction of differential expression, GNAS ([2]; gene GNAS) | DEG ranking after treatment, KCNJ6 ([2]; gene KCNJ6) | DEG ranking after treatment, KCNJ10 ([2]; gene KCNJ10) | DEG ranking after treatment, KCNK3 ([2]; gene KCNK3) | DEG ranking after treatment, KCNQ3 ([2]; gene KCNQ3) | DEG ranking after treatment, KCNV1 ([2]; gene KCNV1) | DEG ranking after treatment, SLC12A5 (KCC2) ([2]; gene SLC12A5 (KCC2)) | DEG ranking after treatment, SNAP25 ([2]; gene SNAP25) | Clinical response of ASD patients to treatment [3] |
| --- | --- | --- | --- | --- | --- | --- | --- | --- | --- | --- | --- |
| C[S+]([O-])CCCCN=C=S (centres unmarked) [sulforaphane] | improve behaviour in some ASD patients | – | – | – | – | – | – | – | – | – | – |
| CCCCNc1cc(C(=O)O)cc(S(N)(=O)=O)c1Oc1ccccc1 [bumetanide, 3-(butylamino)-4-phenoxy-5-sulfamoylbenzoic acid] | – | 1 | DOWN | 19 | 113 | 49 | 48 | 165 | 35 | 1 | shown improvement |
